Measured values published in patent US20030181527A1, “Novel formulations of alpha-2,4-disulfophenyl-n-tert-butylnitrone” (priority 2000, published 2003).

Key:
[1] = Effect on pH and stability of dilution of aqueous concentrates in 0.9% sodium chloride; assay type: physicochemical; conditions: 400 mg/ml concentrate, 7 ml diluted in 500 ml 0.9% NaCl, room temperature
Protocol: Three batches of an aqueous concentrate of α-(2,4-disulfophenyl)-N-tert-butylnitrone disodium salt (400 mg/ml) were prepared and adjusted to pH 8.5. One concentrate was unbuffered and the other two concentrates were buffered with respectively 2.6 or 26 mM disodium hydrogen phosphate. In each case a 7 ml portion of the concentrate was transferred into 0.9% sodium chloride solution (500 ml) contained in a PVC bag. The bags were the stored at room temperature, protected from light, for 48 hours. Samples were taken out at 0, 24 and 48 hours and analysed.

[2] = Stability versus vial headspace volume (fill volume); assay type: physicochemical; conditions: 400 mg/ml; for Final Amount of Aldehyde (II): pH 8.5, headspace not purged, 2 months +40° C./75% RH
Protocol: A concentrated aqueous solution of α-(2,4-disulfophenyl)-N-tert-butylnitrone disodium salt (400 mg/ml) and disodium hydrogen phosphate (10.5 mM) at pH 8.5 was purged with nitrogen for 30 minutes. Either 8 ml or 13 ml portions of this solution were then placed in standard 10 ml glass vials (the maximum possible fill volume of a standard 10 ml glass vial is 13 ml). The headspace was not purged with nitrogen. The vials were sealed and stored at +40° C. and 75% relative humidity for two months.

[3] = Effect of pH on stability of diluted 4 mg/ml solutions at room temperature; assay type: physicochemical
Description: The pH dependent degradation of aqueous solutions of α-(2,4-disulfophenyl)-N-tert-butylnitrone disodium salt has been extensively studied. […] Both solutions, which were obtained by appropriate dilution of a corresponding concentrate, were stored at room temperature under conditions that would reasonably simulate a diluted concentrate prepared ready for administration to patients.

[4] = tested on: C. albicans; assay: Antimicrobial efficacy (European Pharmacopoeia 2000, Chapter 5.1.3); assay type: cell-based
Protocol: The antimicrobial efficacy was tested for three different solutions:
i) α-(2,4-disulfophenyl)-N-tert-butylnitrone disodium salt, 10 mg/ml;
ii) α-(2,4-disulfophenyl)-N-tert-butylnitrone disodium salt, 400 mg/ml; and
iii) a carbonate buffer control.
The tests were performed according to European Pharmacopoeia 2000, Chapter 5.1.3, pages 259 to 260. Seven 10 ml vials were inoculated, one per test organism. During the tests, the vials were stored at controlled room temperature and protected from light. At different time intervals, samples were withdrawn and after appropriate dilutions the numbers of viable microorganisms (colony forming units per ml, CFU/ml) were determined using standard plate count procedures.

[5] = 4 mg/ml buffered with phosphate (0.53 mM), 0 days
[6] = 4 mg/ml buffered with phosphate (0.53 mM), 1 day
[7] = 4 mg/ml buffered with phosphate (0.53 mM), 2 days
[8] = 4 mg/ml buffered with phosphate (0.53 mM), 5 days
[9] = 4 mg/ml buffered with phosphate (0.53 mM), 7 days
[10] = 4 mg/ml unbuffered solution, 0 days
[11] = 4 mg/ml unbuffered solution, 1 day
[12] = 4 mg/ml unbuffered solution, 2 days
[13] = 4 mg/ml unbuffered solution, 5 days
[14] = 4 mg/ml unbuffered solution, 7 days

Amount of Aldehyde (II) ([1]; 2.6 mM phosphate, 0 hours): 0.30 Area %
pH ([1]; 2.6 mM phosphate, 0 hours): 6.50
Amount of Aldehyde (II) ([1]; 2.6 mM phosphate, 24 hours): 0.44 Area %
pH ([1]; 2.6 mM phosphate, 24 hours): 6.69
Amount of Aldehyde (II) ([1]; 2.6 mM phosphate, 48 hours): 0.57 Area %
pH ([1]; 2.6 mM phosphate, 48 hours): 6.67
Amount of Aldehyde (II) ([1]; 26 mM phosphate, 0 hours): 0.17 Area %
pH ([1]; 26 mM phosphate, 0 hours): 7.43
Amount of Aldehyde (II) ([1]; 26 mM phosphate, 24 hours): 0.20 Area %
pH ([1]; 26 mM phosphate, 24 hours): 7.39
Amount of Aldehyde (II) ([1]; 26 mM phosphate, 48 hours): 0.25 Area %
pH ([1]; 26 mM phosphate, 48 hours): 7.38
Amount of Aldehyde (II) ([1]; no buffer, 0 hours): 0.25 Area %
pH ([1]; no buffer, 0 hours): 6.01
Amount of Aldehyde (II) ([1]; no buffer, 24 hours): 0.68 Area %
pH ([1]; no buffer, 24 hours): 6.32
Amount of Aldehyde (II) ([1]; no buffer, 48 hours): 0.89 Area %
pH ([1]; no buffer, 48 hours): 6.48
Initial aldehyde level ([2]; 10.5 mM phosphate, pH 8.5, nitrogen purged, initial): 0.1%
Final Amount of Aldehyde (II) ([2]; fill volume 8 ml in 10 ml vial): 1.1 area %
Final Amount of Aldehyde (II) ([2]; fill volume 13 ml in 10 ml vial): 0.6 area %
Amount of Aldehyde (II) [3, 5]: 0.8 Area %
pH [3, 5]: 8.0
Amount of Aldehyde (II) [3, 6]: 0.9 Area %
pH [3, 6]: 7.9
Amount of Aldehyde (II) [3, 7]: 0.9 Area %
pH [3, 7]: 7.7
Amount of Aldehyde (II) [3, 8]: 1.0 Area %
pH [3, 8]: 7.5
Amount of Aldehyde (II) [3, 9]: 1.1 Area %
pH [3, 9]: 7.5
Amount of Aldehyde (II) [3, 10]: 0.9 Area %
pH [3, 10]: 6.8
Amount of Aldehyde (II) [3, 11]: 1.1 Area %
pH [3, 11]: 6.8
Amount of Aldehyde (II) [3, 12]: 1.2 Area %
pH [3, 12]: 6.8
Amount of Aldehyde (II) [3, 13]: 1.6 Area %
pH [3, 13]: 6.8
Amount of Aldehyde (II) [3, 14]: 2.0 Area %
pH [3, 14]: 6.7
SMILES: CC(C)(C)[N+]([O-])=Cc1ccc(S(=O)(=O)[O-])cc1S(=O)(=O)[O-].[Na+].[Na+] [α-(2,4-disulfophenyl)-N-tert-butylnitrone disodium salt]
Number of CFUs per ml - Time after Inoculation ([4]; 10 mg/ml, 6 h): 7.0 × 10^5 CFUs per ml
Number of CFUs per ml - Time after Inoculation ([4]; 10 mg/ml, 24 h): 6.5 × 10^5 CFUs per ml
Number of CFUs per ml - Time after Inoculation ([4]; 10 mg/ml, 48 h): 6.5 × 10^5 CFUs per ml
Number of CFUs per ml - Time after Inoculation ([4]; 10 mg/ml, 7 days): <10 CFUs per ml
Number of CFUs per ml - Time after Inoculation ([4]; 10 mg/ml, 14 days): <1 CFUs per ml
Number of CFUs per ml - Time after Inoculation ([4]; 10 mg/ml, 21 days): <1 CFUs per ml
Number of CFUs per ml - Time after Inoculation ([4]; 10 mg/ml, 28 days): <1 CFUs per ml
Number of CFUs per ml - Time after Inoculation ([4]; 10 mg/ml, <1 min): 6.5 × 10^5 CFUs per ml
Number of CFUs per ml - Time after Inoculation ([4]; 400 mg/ml, 6 h): 3.1 × 10^4 CFUs per ml
Number of CFUs per ml - Time after Inoculation ([4]; 400 mg/ml, 24 h): 6.1 × 10^3 CFUs per ml
Number of CFUs per ml - Time after Inoculation ([4]; 400 mg/ml, 48 h): <1 CFUs per ml
Number of CFUs per ml - Time after Inoculation ([4]; 400 mg/ml, 7 days): <1 CFUs per ml
